Source: US8124637B2, “Anthra [1, 2-d]imidazole-6,11-dione derivatives, preparation method and application thereof” (National Defense Medical Center, priority 2010, dated 2012)

Assays:
SK-MEL-5 = assay: NCI 60-cell drug screen, one dose; assay type: cell-based, human; settings: Melanoma SK-MEL-5, 1.00E−5 Molar
Description: (§1) In brief, cellular protein levels were determined after 48 hours of drug exposure by sulforhodamine B colorimetry.
(§2) The screening system in United State National Cancer Institute (NCI) consists of 60 kinds of different human cancer cells, which can be used to assay the growth-inhibiting ability or cell toxicity of a compound against various cancer and tumor at a certain concentration. The NCI had selected 6 compounds synthesized above, and performed cell toxicity assay against 60 kinds of cancer cell strains (Table 2) (DTP Human Tumor Cell Line Screen), in which each compound was assayed at a certain concentration to observe its inhibition ability or cell toxicity against various kinds of cancer and tumor.

MDA-MB-435 = assay: NCI 60-cell drug screen, one dose; assay type: cell-based, human; settings: Melanoma MDA-MB-435, 1.00E−5 Molar
Description: as §1, §2

M14 = assay: NCI 60-cell drug screen, one dose; assay type: cell-based, human; settings: Melanoma M14, 1.00E−5 Molar
Description: as §1, §2

MDA-MB-468 = assay: NCI 60-cell drug screen, one dose; assay type: cell-based, human; settings: Breast Cancer MDA-MB-468, 1.00E−5 Molar
Description: as §1, §2

UACC-62 = assay: NCI 60-cell drug screen, one dose; assay type: cell-based, human; settings: Melanoma UACC-62, 1.00E−5 Molar
Description: as §1, §2

SNB-75 = assay: NCI 60-cell drug screen, one dose; assay type: cell-based, human; settings: CNS Cancer SNB-75, 1.00E−5 Molar
Description: as §1, §2

SK-MEL-28 = assay: NCI 60-cell drug screen, one dose; assay type: cell-based, human; settings: Melanoma SK-MEL-28, 1.00E−5 Molar
Description: as §1, §2

MCF7 = assay: NCI 60-cell drug screen, one dose; assay type: cell-based, human; settings: Breast Cancer MCF7, 1.00E−5 Molar
Description: as §1, §2

SK-MEL-2 = assay: NCI 60-cell drug screen, one dose; assay type: cell-based, human; settings: Melanoma SK-MEL-2, 1.00E−5 Molar
Description: as §1, §2

LOX IMVI = assay: NCI 60-cell drug screen, one dose; assay type: cell-based, human; settings: Melanoma LOX IMVI, 1.00E−5 Molar
Description: as §1, §2

T-47D = assay: NCI 60-cell drug screen, one dose; assay type: cell-based, human; settings: Breast Cancer T-47D, 1.00E−5 Molar
Description: as §1, §2

NCI-H23 = assay: NCI 60-cell drug screen, one dose; assay type: cell-based, human; settings: Non-Small Cell Lung Cancer NCI-H23, 1.00E−5 Molar
Description: as §1, §2

UO-31 = assay: NCI 60-cell drug screen, one dose; assay type: cell-based, human; settings: Renal Cancer UO-31, 1.00E−5 Molar
Description: as §1, §2

HL-60(TB) = assay: NCI 60-cell drug screen, one dose; assay type: cell-based, human; settings: Leukemia HL-60(TB), 1.00E−5 Molar
Description: as §1, §2

OVCAR-5 = assay: NCI 60-cell drug screen, one dose; assay type: cell-based, human; settings: Ovarian Cancer OVCAR-5, 1.00E−5 Molar
Description: as §1, §2

SN12C = assay: NCI 60-cell drug screen, one dose; assay type: cell-based, human; settings: Renal Cancer SN12C, 1.00E−5 Molar
Description: as §1, §2

MALME-3M = assay: NCI 60-cell drug screen, one dose; assay type: cell-based, human; settings: Melanoma MALME-3M, 1.00E−5 Molar
Description: as §1, §2

BT-549 = assay: NCI 60-cell drug screen, one dose; assay type: cell-based, human; settings: Breast Cancer BT-549, 1.00E−5 Molar
Description: as §1, §2

HOP-62 = assay: NCI 60-cell drug screen, one dose; assay type: cell-based, human; settings: Non-Small Cell Lung Cancer HOP-62, 1.00E−5 Molar
Description: as §1, §2

786-0 = assay: NCI 60-cell drug screen, one dose; assay type: cell-based, human; settings: Renal Cancer 786-0, 1.00E−5 Molar
Description: as §1, §2

SF-539 = assay: NCI 60-cell drug screen, one dose; assay type: cell-based, human; settings: CNS Cancer SF-539, 1.00E−5 Molar
Description: as §1, §2

[1] = NCI 60-cell drug screen, one dose; assay type: cell-based, human; settings: Renal Cancer A489, 1.00E−5 Molar
Description: as §1, §2

SK-OV-3 = assay: NCI 60-cell drug screen, one dose; assay type: cell-based, human; settings: Ovarian Cancer SK-OV-3, 1.00E−5 Molar
Description: as §1, §2

SF-268 = assay: NCI 60-cell drug screen, one dose; assay type: cell-based, human; settings: CNS Cancer SF-268, 1.00E−5 Molar
Description: as §1, §2

U251 = assay: NCI 60-cell drug screen, one dose; assay type: cell-based, human; settings: CNS Cancer U251, 1.00E−5 Molar
Description: as §1, §2

TK-10 = assay: NCI 60-cell drug screen, one dose; assay type: cell-based, human; settings: Renal Cancer TK-10, 1.00E−5 Molar
Description: as §1, §2

[2] = system: hTERT promoter (PhTERT) expression; assay: SEAP assay (PhTERT-SEAP reporter, H1299); assay type: cell-based, human; settings: Homo sapiens, NCI-H1299, PhTERT-SEAP (H1299); for activity at 1 µM: read-out: Relative SEAP activity (%); for activity at 10 µM / activity at 100 µM: read-out: Relative SEAP activity (%) (converted)
Procedure, shortened: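 Stable H1299 clones carrying the hTERT promoter (−3338 to +1) driving SEAP were treated with varying drug amounts for 24 h at 37° C. Heat-treated media (65° C, 10 min) were assayed with 12 mM p-nitrophenyl phosphate in diethanolamine buffer; rate of A405 increase gave SEAP activity.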

[3] = system: 60 kinds of different human cancer cells; assay: NCI 60-cell drug screen, one dose, whole panel; assay type: cell-based; settings: mean over the tested cell lines, 1.00E−5 Molar
Description: as §1, §2

Compound	Growth Percent (SK-MEL-5) [%]	Growth Percent (MDA-MB-435) [%]	Growth Percent (M14) [%]	Growth Percent (MDA-MB-468) [%]	Growth Percent (UACC-62) [%]	Growth Percent (SNB-75) [%]	Growth Percent (SK-MEL-28) [%]	Growth Percent (MCF7) [%]	Growth Percent (SK-MEL-2) [%]	Growth Percent (LOX IMVI) [%]	Growth Percent (T-47D) [%]	Growth Percent (NCI-H23) [%]	Growth Percent (UO-31) [%]	Growth Percent (HL-60(TB)) [%]	Growth Percent (OVCAR-5) [%]	Growth Percent (SN12C) [%]	Growth Percent (MALME-3M) [%]	Growth Percent (BT-549) [%]	Growth Percent (HOP-62) [%]	Growth Percent (786-0) [%]	also measured
O=C1c2ccccc2C(=O)c2c1ccc1nc(CN3CCN(c4ccccc4)CC3)[nH]c21 [CL27, 2-((4-phenylpiperazin-1-yl)methyl)-1H-anthra[1,2-d]imidazole-6,11-dione]	74.84	101.37	106.33	72.75	93.36	70.93	127.46	66.08	101.39	95.76	66.35	92.11	58.33	107.54	107.63	89.91	119.09	110.22	98.40	88.48	Growth Percent (SF-539): 112.36%; Growth Percent [1]: 75.09%; Growth Percent (SK-OV-3): 98.95%; Growth Percent (SF-268): 80.44%; Growth Percent (U251): 84.83%; Growth Percent (TK-10): 118.37%; activity at 1 µM [2]: 92.23 ± 0.78%; activity at 10 µM [2]: 76.7%; activity at 100 µM [2]: 5.83%; Growth Percent, Mean [3]: 90.15%
O=C1c2ccccc2C(=O)c2c1ccc1nc(CN3CCN(c4ccccn4)CC3)[nH]c21 [CL28, 2-((4-(pyridin-2-yl)piperazin-1-yl)methyl)-1H-anthra[1,2-d]imidazole-6,11-dione]	83.56	94.85	103.99	53.92	85.13	82.14	114.23	81.99	98.34	82.25	56.78	81.65	60.42	97.31	110.77	79.85	124.77	102.42	103.18	91.03	Growth Percent (SF-539): 104.29%; Growth Percent [1]: 68.23%; Growth Percent (SK-OV-3): 93.16%; Growth Percent (SF-268): 79.15%; Growth Percent (U251): 86.28%; Growth Percent (TK-10): 120.65%; activity at 1 µM [2]: 91.2 ± 2.69%; activity at 10 µM [2]: 57.1%; activity at 100 µM [2]: 1.12%; Growth Percent, Mean [3]: 87.65%
